Measured values from the NIST ThermoML archive (doi:10.1016/j.jct.2012.08.024).
± gives the expanded uncertainty stated by the source.

Settings: 101.33 kPa, Liquid; for viscosity: Capillary tube (Ostwald / Ubbelohde) method; for mass density: Vibrating tube method

SMILES	viscosity (298.15 K) [mPa·s]	viscosity (303.15 K) [mPa·s]	mass density (303.15 K) [kg/m3]	viscosity (308.15 K) [mPa·s]	viscosity (313.15 K) [mPa·s]	mass density (313.15 K) [kg/m3]	viscosity (318.15 K) [mPa·s]	viscosity (323.15 K) [mPa·s]	mass density (323.15 K) [kg/m3]	viscosity (328.15 K) [mPa·s]	mass density (298.15 K) [kg/m3]	mass density (308.15 K) [kg/m3]	mass density (318.15 K) [kg/m3]	mass density (328.15 K) [kg/m3]
OCCO [1,2-ethanediol]	16.61 ± 0.23	13.58 ± 0.18	1106.38 ± 0.08	11.24 ± 0.15	9.404 ± 0.13	1099.31 ± 0.08	7.945 ± 0.11	6.774 ± 0.094	1092.16 ± 0.08	5.826 ± 0.081				
CCO [ethanol]	1.087 ± 0.016	0.99 ± 0.02	780.75 ± 0.15	0.905 ± 0.013	0.829 ± 0.012	772.02 ± 0.15	0.761 ± 0.011	0.706 ± 0.01	763.11 ± 0.15	0.648 ± 0.009	785.07 ± 0.15	776.41 ± 0.15	767.59 ± 0.15	758.58 ± 0.16
